In patent US8779154B2, “Fused ring compounds for inflammation and immune-related uses” (priority 2006, dated 2014):

Test system: IL-2 production
Assay: Inhibition of IL-2 production in PHA-activated Jurkat cells (ELISA)
Assay type: cell-based
Conditions: Homo sapiens, PHA 2.5 μg/mL, IL-2 ELISA
Procedure: Jurkat cells were placed in a 96 well plate (0.5 million cells per well in 1% FBS medium) then a test compound of this invention was added at different concentrations. After 10 minutes, the cells were activated with PHA (final concentration 2.5 μg/mL) and incubated for 20 hours at 37° C. under CO2. The final volume was 200 μL. Following incubation, the cells were centrifuged and the supernatants collected and stored at −70° C. prior to assaying for IL-2 production. A commercial ELISA kit (IL-2 Eli-pair, Diaclone Research, Besancon, France) was used to detect production of IL-2, from which dose response curves were obtained. The IC50 value was calculated as the concentration at which 50% of maximum IL-2 production after stimulation was inhibited versus a non-stimulation control.

Structure (SMILES) | IC50 (Jurkat, 20 h) [µM] | IC50 (20 hours) [µM]
COc1ccc2c(c1)-c1sc(NC(=O)Nc3c(F)cccc3F)nc1CCC2 [Compound 154] | 0.5 to 1 | 
O=Cc1cccc2c1CCCc1nc(NC(=O)c3c(F)cccc3F)sc1-2 [Compound 67] | 0.5 to 1 | 
O=C(Nc1nc2c(=O)oc3ccc(C(F)(F)F)cc3c2s1)c1c(F)cccc1F [Compound 1] | > 1 | 
O=C(Nc1nc2c(s1)-c1cc(Br)ccc1CCC2)c1c(F)cccc1F [Compound 17] | > 1 | 
O=C1NCc2ccc(Br)cc2-c2sc(NC(=O)c3c(F)cccc3F)nc21 [Compound 136] | > 1 | 
O=C(Nc1c(F)cccc1F)c1nc2c(s1)-c1ccccc1CCC2 [Compound 31] | > 1 | 
CN1Cc2ccc(Br)cc2-c2sc(NCc3c(F)cccc3F)nc2C1 [Compound 137] | > 1 | 
O=C(Nc1c(F)cccc1F)c1nc2c(s1)-c1cc(-c3nnn[nH]3)ccc1CCC2 [Compound 40] | > 1 | 
O=c1oc2ccc(C(F)(F)F)cc2c2sc(NCc3c(F)cccc3F)nc12 [Compound 7] | > 1 | 
COc1ccc2c(c1)-c1sc(C(=O)Nc3ccncc3C)nc1CCC2 [Compound 10] | 0.25 to 0.5 | 
N#Cc1cc2c(s1)CCCc1nc(NC(=O)c3c(F)cccc3F)sc1-2 [Compound 86] | > 1 | 
O=C(Nc1nc2c(s1)-c1cc(O)ccc1CCC2)c1c(F)cccc1F [Compound 79] | 0.25 to 0.5 | 
COc1cccc2c1CCCc1nc(C(=O)Nc3c(F)cccc3F)sc1-2 [Compound 6] | 0.25 to 0.5 | 
COc1cccc2c1CCCc1nc(C(=O)Nc3ccncc3C)sc1-2 [Compound 11] | > 1 | 
O=C(Nc1nc2c(s1)-c1ccc(-c3nnn[nH]3)cc1CCC2)c1c(F)cccc1F [Compound 77] | > 1 | 
CN1Cc2ccc(Br)cc2-c2sc(NC(=O)c3c(F)cccc3F)nc2C1=O [Compound 135] | > 1 | 
COc1ccc2c(c1)-c1cnc(NC(=O)c3c(F)cccc3F)nc1CCC2 [Compound 93] | 0.5 to 1 | 
O=C(Nc1c(F)ccc([N+](=O)[O-])c1F)c1nc2c(s1)-c1ccc([N+](=O)[O-])cc1CCC2 [Compound 35] |  | 0.1 to 0.25
O=C(Nc1nc2c(=O)oc3ccc(O)cc3c2s1)c1c(F)cccc1F [Compound 15] | > 1 | 
COc1cccc2c1CCCc1nc(NC(=O)c3ccncc3C)ncc1-2 [Compound 92] | > 1 | 
COc1ccc2c(c1)CCCc1nc(NC(=O)c3c(F)cccc3F)cnc1-2 [Compound 96] | 0.25 to 0.5 | 

Structure (SMILES) | IC50 (Jurkat, 20 h) [µM] | IC50 (20 hours) [µM]
O=C(Nc1ncc2c(n1)CCCc1cnc(-c3cccnc3)nc1-2)c1c(F)cccc1F [Compound 89] | 0.5 to 1 | 
COc1ccc2c(c1)-c1sc(NC(=O)c3ccncc3F)nc1CCO2 [Compound 9] | > 1 | 
COc1ccc2c(c1)-c1sc(NC(=O)c3ccncc3F)nc1CCC2 [Compound 3] | > 1 | 
N#Cc1ccc2c(c1)-c1sc(NC(=O)c3c(F)cccc3F)nc1CCC2 [Compound 80] | > 1 | 
COc1ccc2c(c1)-c1sc(C(=N)Nc3c(F)cccc3F)nc1CCC2 [Compound 152] | 0.5 to 1 | 
O=C(Nc1c(F)cccc1F)c1nc2c(s1)-c1cc(-c3cnc[nH]3)ccc1CCC2 [Compound 131] | 0.5 to 1 | 
Fc1cccc(F)c1CNc1ccc2c(c1)CCCc1cnc(-c3cccnc3)nc1-2 [Compound 104] | > 1 | 
CN(C)c1cccc(F)c1C(=O)Nc1nc2c(s1)-c1cc(C#N)ccc1CCC2 [Compound 81] | 0.5 to 1 | 
COc1ccc2c(c1)-c1cnc(NC(=O)c3ccncc3C)nc1CCO2 [Compound 95] | > 1 | 
COc1ccc2c(c1)-c1cnc(NC(=O)c3c(F)cccc3F)nc1CCO2 [Compound 94] | > 1 | 
O=C1OCc2ccc(Br)cc2-c2sc(NC(=O)c3c(F)cccc3F)nc21 [Compound 139] | > 1 | 
O=C(Nc1c(F)cccc1F)c1nc2c(s1)-c1cc(-c3ccc(F)nc3)ccc1CCC2 [Compound 120] | 0.25 to 0.5 | 
Fc1cccc(F)c1CNc1nc2c(s1)-c1cccc(-c3cnco3)c1CCC2 [Compound 69] | 0.25 to 0.5 | 
O=C(Nc1ccc2c(c1)CCCc1cnc(-c3ccccn3)nc1-2)c1c(F)cccc1F [Compound 106] | 0.5 to 1 | 
O=C(Nc1c(F)cccc1F)c1nc2c(s1)-c1cc(CN3CCOCC3)ccc1CCC2 [Compound 42] | > 1 | 
COc1ccc2c(c1)-c1sc(/C(=N/c3c(F)cccc3F)SC)nc1CCC2 [Compound 144] | > 1 | 
Cn1nnc(-c2ccc3c(c2)-c2sc(C(=O)Nc4c(F)cccc4F)nc2CCC3)n1 [Compound 41] | 0.25 to 0.5 | 
COc1ccc2c(c1)-c1sc(/C(=N\O)Nc3c(F)cccc3F)nc1CCC2 [Compound 147] | 0.5 to 1 | 
COc1ccc2c(c1)CCCc1c-2ncc(NC(=O)c2c(F)cccc2F)[n+]1[O-] [Compound 97] | 0.5 to 1 | 
O=C(Nc1c(F)ccc([N+](=O)[O-])c1F)c1nc2c(s1)-c1cc([N+](=O)[O-])ccc1CCC2 [Compound 36] |  | 0.5 to 1
CN1Cc2ccc(Br)cc2-c2sc(C(=O)Nc3c(F)cccc3F)nc2C1=O [Compound 140] | > 1 | 

Now from value to compound, other results behind:

IC50 (Jurkat, 20 h) [µM] | Structure (SMILES) | IC50 (20 hours) [µM]
0.25 to 0.5 | O=C(Nc1nc2c(s1)-c1ccccc1CCC2)c1c(F)cccc1F [Compound 16] | 
≤ 0.03 | O=C(Nc1c(F)cccc1F)c1nc2c(s1)-c1cc(-c3cccnc3F)ccc1CCC2 [Compound 122] | 
0.03 to 0.1 | Nc1ccc(-c2ccc3c(c2)-c2sc(C(=O)Nc4c(F)cccc4F)nc2CCC3)cn1 [Compound 115] | 
0.03 to 0.1 | O=C(Nc1c(F)cccc1F)c1nc2c(s1)-c1cc(-c3cncnc3)ccc1CCC2 [Compound 124] | 
0.03 to 0.1 | COC(=O)c1ccc2c(c1)CCCc1nc(NC(=O)c3c(F)cccc3F)sc1-2 [Compound 73] | 
0.25 to 0.5 | O=C(Nc1c(F)cccc1F)c1nc2c(s1)-c1cc(OC(=O)n3ccnc3)ccc1CCC2 [Compound 111] | 
0.1 to 0.25 | O=C(Nc1c(F)cccc1F)c1nc2c(s1)-c1cc(-c3ccnc(F)c3)ccc1CCC2 [Compound 118] | 
0.25 to 0.5 | O=C(Nc1ccc2c(c1)CCCc1cnc(C3CC3)nc1-2)c1c(F)cccc1F [Compound 110] | 
0.25 to 0.5 | Cc1csc(-c2cccc3c2CCCc2nc(NC(=O)c4c(F)cccc4F)sc2-3)n1 [Compound 71] | 
0.03 to 0.1 | O=C(Nc1ccc2c(c1)CCCc1cnc(-c3cccnc3)nc1-2)c1c(F)cccc1F [Compound 99] | 
0.03 to 0.1 | COc1ccc2c(c1)-c1sc(NC(=O)c3c(F)cccc3F)nc1CCC2 [Compound 8] | 
0.1 to 0.25 | O=C(Nc1nc2c(s1)-c1ccc(-c3nccs3)cc1CCC2)c1c(F)cccc1F [Compound 75] | 
0.1 to 0.25 | O=C(Nc1nc2c(s1)-c1cc(-c3nccs3)ccc1CCC2)c1c(F)cccc1F [Compound 83] | 
≤ 0.03 | COc1ncccc1-c1ccc2c(c1)-c1sc(C(=O)Nc3c(F)cccc3F)nc1CCC2 [Compound 123] | 
≤ 0.03 | COc1ccc2c(c1)-c1sc(C(=O)Nc3c(F)cccc3F)nc1CCC2 [Compound 5] | 
0.03 to 0.1 | O=C(Nc1c(F)cccc1F)c1nc2c(s1)-c1cc(Br)ccc1CCC2 [Compound 18] | 
0.03 to 0.1 | O=C(Nc1c(F)cccc1F)c1nc2c(s1)-c1cc(-c3ccncc3)ccc1CCC2 [Compound 125] | 
0.03 to 0.1 | O=C(Nc1c(F)cccc1F)c1nc2c(s1)-c1cc(O)ccc1CCC2 [Compound 32] | 
0.1 to 0.25 | COc1cccc2c1CCCc1nc(NC(=O)c3ccncc3F)sc1-2 [Compound 14] | 
≤ 0.03 | O=C(Nc1c(F)cccc1F)c1nc2c(s1)-c1cc(-c3cnco3)ccc1CCC2 [Compound 19] | 

IC50 (Jurkat, 20 h) [µM] | Structure (SMILES) | IC50 (20 hours) [µM]
≤ 0.03 | Cn1cncc1-c1ccc2c(c1)-c1sc(C(=O)Nc3c(F)cccc3F)nc1CCC2 [Compound 129] | 
0.03 to 0.1 | O=C(Nc1nc2c(s1)-c1ccc(I)cc1CCC2)c1c(F)cccc1F [Compound 72] | 
0.03 to 0.1 | O=C(Nc1ccc2c(c1)CCCc1sc(-c3cccnc3)nc1-2)c1c(F)cccc1F [Compound 155] | 
0.03 to 0.1 | O=C(Nc1nc2c(s1)-c1ccc(-c3ncco3)cc1CCC2)c1c(F)cccc1F [Compound 76] | 
0.1 to 0.25 | CCOC(=O)N(C(=O)c1nc2c(s1)-c1cc(OC)ccc1CCC2)c1c(F)cccc1F [Compound 143] | 
0.03 to 0.1 | Cc1nc(-c2ccc3c(c2)CCCc2nc(NC(=O)c4c(F)cccc4F)sc2-3)no1 [Compound 60] | 
≤ 0.03 | COc1cccc2c1CCCc1nc(NC(=O)c3c(F)cccc3F)sc1-2 [Compound 12] | 
0.1 to 0.25 | O=C(Nc1c(F)cccc1F)c1nc2c(s1)-c1cc(-c3ccc(O)nc3)ccc1CCC2 [Compound 117] | 
0.1 to 0.25 | COc1cc(-c2ccc3c(c2)-c2sc(C(=O)Nc4c(F)cccc4F)nc2CCC3)ccn1 [Compound 119] | 
≤ 0.03 | Cn1nnnc1-c1ccc2c(c1)-c1sc(C(=O)Nc3c(F)cccc3F)nc1CCC2 [Compound 39] | 
0.1 to 0.25 | CC/N=C(/Nc1c(F)cccc1F)c1nc2c(s1)-c1cc(OC)ccc1CCC2 [Compound 149] | 
0.03 to 0.1 | O=C(Nc1nc2c(s1)-c1ccncc1CCC2)c1c(F)cccc1F [Compound 87] | 
0.1 to 0.25 | O=C(Nc1nc2c(s1)-c1cccc(-c3nccs3)c1CCC2)c1c(F)cccc1F [Compound 70] | 
0.1 to 0.25 | O=C(Nc1c(F)cccc1F)c1nc2c(s1)-c1cc(-c3cn[nH]c3)ccc1CCC2 [Compound 128] | 
0.03 to 0.1 | O=C(Nc1nc2c(s1)-c1cccc(O)c1CCC2)c1c(F)cccc1F [Compound 51] | 
0.03 to 0.1 | Fc1cccc(F)c1NC(=S)c1nc2c(s1)-c1cc(-c3cnco3)ccc1CCC2 [Compound 148] | 
≤ 0.03 | O=C(Nc1c(F)cccc1F)c1nc2c(s1)-c1cc(-c3nccs3)ccc1CCC2 [Compound 34] | 
0.1 to 0.25 | COc1cccc2c1CCCc1nc(NC(=O)c3c(F)cccc3F)ncc1-2 [Compound 91] | 
0.03 to 0.1 | O=C(Nc1ccc2c(c1)CCCc1cnc(-c3ccncc3)nc1-2)c1c(F)cccc1F [Compound 108] | 
